From patent EP4722207A1, “OXOISOINDOLINYL-SUBSTITUTED TETRAHYDROPYRIMIDINEDIONE DERIVATIVE AND USE THEREOF” (Gluetacs Therapeutics (Shanghai) Co., Ltd., priority 2023, dated 2024)

Experiments:
IKZF1 = target: T1, IKZF1 (Homo sapiens, UniProt Q13422+Q96SW2); assay: Western-blot assay, substrate protein degradation in hPBMCs: IKZF1; format: cell-based; settings: for IKZF1 substrate protein remaining %: compounds at 50 nM and 500 nM, 24 hours; for substrate protein remaining % IKZF1: 24 hours of compound treatment, 50 nM and 500 nM
T1 construct: effects of the compounds of the present disclosure on the expression of target proteins in cells; endogenous in cells; host or cells: human PBMCs (hPBMCs)
T1 sequence (Q13422 whole entry): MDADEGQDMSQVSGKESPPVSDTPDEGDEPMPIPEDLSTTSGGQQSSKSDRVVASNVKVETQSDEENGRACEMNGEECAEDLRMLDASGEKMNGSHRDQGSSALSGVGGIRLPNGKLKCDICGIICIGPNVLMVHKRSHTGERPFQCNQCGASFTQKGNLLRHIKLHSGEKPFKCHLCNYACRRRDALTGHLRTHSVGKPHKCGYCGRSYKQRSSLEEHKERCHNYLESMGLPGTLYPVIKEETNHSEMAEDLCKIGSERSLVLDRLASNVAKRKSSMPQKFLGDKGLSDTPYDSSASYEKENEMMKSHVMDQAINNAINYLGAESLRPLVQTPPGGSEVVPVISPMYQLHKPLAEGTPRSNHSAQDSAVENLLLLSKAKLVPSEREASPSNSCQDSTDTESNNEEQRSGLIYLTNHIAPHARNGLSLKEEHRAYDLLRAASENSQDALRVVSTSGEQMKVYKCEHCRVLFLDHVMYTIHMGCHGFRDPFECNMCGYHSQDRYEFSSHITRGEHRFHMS
T1 sequence (Q96SW2 whole entry): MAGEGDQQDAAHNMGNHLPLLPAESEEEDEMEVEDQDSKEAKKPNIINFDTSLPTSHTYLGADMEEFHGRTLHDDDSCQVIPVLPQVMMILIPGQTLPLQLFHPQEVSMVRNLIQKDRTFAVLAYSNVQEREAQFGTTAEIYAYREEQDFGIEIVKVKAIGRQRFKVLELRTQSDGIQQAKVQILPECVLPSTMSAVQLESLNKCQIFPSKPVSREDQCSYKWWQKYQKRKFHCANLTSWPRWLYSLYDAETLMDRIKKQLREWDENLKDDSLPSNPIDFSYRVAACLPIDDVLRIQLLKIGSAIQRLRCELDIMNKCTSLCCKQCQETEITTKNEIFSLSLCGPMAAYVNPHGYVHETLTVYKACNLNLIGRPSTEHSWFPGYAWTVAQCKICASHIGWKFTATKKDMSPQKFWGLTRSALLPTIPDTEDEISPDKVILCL
T1 sequence (Q16531 whole entry partner): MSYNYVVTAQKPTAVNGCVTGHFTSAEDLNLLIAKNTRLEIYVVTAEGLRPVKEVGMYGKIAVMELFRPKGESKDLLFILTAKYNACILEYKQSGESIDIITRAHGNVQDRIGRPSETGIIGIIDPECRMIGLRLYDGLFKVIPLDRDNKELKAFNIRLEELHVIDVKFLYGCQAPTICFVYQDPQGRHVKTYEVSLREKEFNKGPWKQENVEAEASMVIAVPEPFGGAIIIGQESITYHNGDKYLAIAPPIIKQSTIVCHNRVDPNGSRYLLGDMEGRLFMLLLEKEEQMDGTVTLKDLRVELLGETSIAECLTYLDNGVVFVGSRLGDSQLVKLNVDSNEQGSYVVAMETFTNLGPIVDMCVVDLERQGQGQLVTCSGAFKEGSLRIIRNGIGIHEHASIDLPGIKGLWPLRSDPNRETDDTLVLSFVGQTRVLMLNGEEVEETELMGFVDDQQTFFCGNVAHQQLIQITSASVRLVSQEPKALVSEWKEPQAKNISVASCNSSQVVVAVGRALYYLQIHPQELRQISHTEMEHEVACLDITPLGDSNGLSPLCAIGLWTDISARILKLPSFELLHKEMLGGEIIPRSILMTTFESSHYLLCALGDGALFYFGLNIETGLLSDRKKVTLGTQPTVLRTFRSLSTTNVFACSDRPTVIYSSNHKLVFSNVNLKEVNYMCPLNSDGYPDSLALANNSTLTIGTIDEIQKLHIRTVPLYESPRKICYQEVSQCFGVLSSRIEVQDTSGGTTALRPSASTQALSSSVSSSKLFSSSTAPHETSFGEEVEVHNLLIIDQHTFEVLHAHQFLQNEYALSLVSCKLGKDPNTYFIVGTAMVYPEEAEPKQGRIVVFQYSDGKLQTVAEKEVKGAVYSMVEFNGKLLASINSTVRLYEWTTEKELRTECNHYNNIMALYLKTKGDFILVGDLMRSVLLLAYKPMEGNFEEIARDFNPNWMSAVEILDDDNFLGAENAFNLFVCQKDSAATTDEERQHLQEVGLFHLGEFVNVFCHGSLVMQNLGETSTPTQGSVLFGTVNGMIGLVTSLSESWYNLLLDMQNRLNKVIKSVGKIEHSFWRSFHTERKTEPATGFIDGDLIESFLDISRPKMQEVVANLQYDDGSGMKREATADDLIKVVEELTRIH

IKZF2 = target: T2, IKZF2 (Homo sapiens, UniProt Q96SW2+Q9UKS7); assay: Western-blot assay, substrate protein degradation in hPBMCs: IKZF2; format: cell-based; settings: for IKZF2 substrate protein remaining %: compounds at 50 nM and 500 nM, 24 hours; for substrate protein remaining % IKZF2: 24 hours of compound treatment, 50 nM and 500 nM
T2 construct: effects of the compounds of the present disclosure on the expression of target proteins in cells; endogenous in cells; host or cells: human PBMCs (hPBMCs)
T2 sequence (Q9UKS7 whole entry): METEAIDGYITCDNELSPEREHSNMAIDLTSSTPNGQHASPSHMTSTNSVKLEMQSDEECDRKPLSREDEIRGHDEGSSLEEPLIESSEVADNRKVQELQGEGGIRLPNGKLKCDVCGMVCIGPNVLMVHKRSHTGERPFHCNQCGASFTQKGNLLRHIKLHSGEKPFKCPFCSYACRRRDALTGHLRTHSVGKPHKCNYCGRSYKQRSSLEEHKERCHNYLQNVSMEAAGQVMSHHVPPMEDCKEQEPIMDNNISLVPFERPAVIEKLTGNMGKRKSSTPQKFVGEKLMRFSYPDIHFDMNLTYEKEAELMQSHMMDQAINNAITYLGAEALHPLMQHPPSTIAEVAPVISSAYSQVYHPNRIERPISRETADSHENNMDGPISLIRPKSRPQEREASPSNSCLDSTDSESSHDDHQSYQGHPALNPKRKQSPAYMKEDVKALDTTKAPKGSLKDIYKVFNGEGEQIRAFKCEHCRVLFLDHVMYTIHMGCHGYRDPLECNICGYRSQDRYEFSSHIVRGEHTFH
T2 sequence (Q96SW2 whole entry): as the sequence (Q96SW2 whole entry) above
T2 sequence (Q16531 whole entry partner): as the sequence (Q16531 whole entry partner) above

CK1α = target: T3, CK1α (Homo sapiens, UniProt P48729+Q96SW2); assay: Western-blot assay, substrate protein degradation in hPBMCs: CK1α; format: cell-based; settings: for CK1α substrate protein remaining %: compounds at 50 nM and 500 nM, 24 hours; for substrate protein remaining % CK1α: 24 hours of compound treatment, 50 nM and 500 nM
T3 construct: effects of the compounds of the present disclosure on the expression of target proteins in cells; endogenous in cells; host or cells: human PBMCs (hPBMCs)
T3 sequence (P48729 whole entry): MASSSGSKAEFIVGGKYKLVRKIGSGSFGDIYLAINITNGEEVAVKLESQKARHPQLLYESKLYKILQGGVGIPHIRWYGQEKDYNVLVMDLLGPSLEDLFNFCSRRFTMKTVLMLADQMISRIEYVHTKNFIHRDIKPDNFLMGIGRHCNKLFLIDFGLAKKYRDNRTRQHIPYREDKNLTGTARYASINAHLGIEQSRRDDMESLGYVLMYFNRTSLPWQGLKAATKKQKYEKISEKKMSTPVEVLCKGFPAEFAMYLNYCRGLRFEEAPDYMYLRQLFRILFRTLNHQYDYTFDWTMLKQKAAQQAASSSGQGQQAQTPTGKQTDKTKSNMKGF
T3 sequence (Q96SW2 whole entry): as the sequence (Q96SW2 whole entry) above
T3 sequence (Q16531 whole entry partner): as the sequence (Q16531 whole entry partner) above

MM.1S = assay: Cell viability assay (CellTiter-Meiluncell Luminescent), tumor cell proliferation, MM.1S; settings: Homo sapiens, MM1.S, 96 h, read-out: inhibitory activity (IC50, nM) against tumor cells proliferation, MM.1S
IKZF3 = target: T4, IKZF3 (Homo sapiens, UniProt Q96SW2+Q9UKT9); assay: Western-blot assay, substrate protein degradation in hPBMCs: IKZF3; format: cell-based; settings: for IKZF3 substrate protein remaining %: compounds at 50 nM and 500 nM, 24 hours; for substrate protein remaining % IKZF3: 24 hours of compound treatment, 50 nM and 500 nM
T4 construct: effects of the compounds of the present disclosure on the expression of target proteins in cells; endogenous in cells; host or cells: human PBMCs (hPBMCs)
T4 sequence (Q9UKT9 whole entry): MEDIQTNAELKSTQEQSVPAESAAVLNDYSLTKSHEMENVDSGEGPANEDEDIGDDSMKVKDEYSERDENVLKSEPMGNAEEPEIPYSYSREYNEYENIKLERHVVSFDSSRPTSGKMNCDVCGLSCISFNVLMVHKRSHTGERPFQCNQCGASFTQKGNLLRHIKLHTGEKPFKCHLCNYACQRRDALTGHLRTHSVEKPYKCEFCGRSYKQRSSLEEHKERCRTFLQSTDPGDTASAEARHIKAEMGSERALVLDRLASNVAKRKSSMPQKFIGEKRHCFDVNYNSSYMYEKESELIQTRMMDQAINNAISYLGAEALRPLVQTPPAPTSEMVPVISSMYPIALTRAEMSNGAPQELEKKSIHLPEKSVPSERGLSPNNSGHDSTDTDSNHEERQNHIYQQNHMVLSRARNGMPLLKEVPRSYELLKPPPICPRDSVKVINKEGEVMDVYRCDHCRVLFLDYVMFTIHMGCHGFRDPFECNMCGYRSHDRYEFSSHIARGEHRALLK
T4 sequence (Q96SW2 whole entry): as the sequence (Q96SW2 whole entry) above
T4 sequence (Q16531 whole entry partner): as the sequence (Q16531 whole entry partner) above

GSPT1 = target: T5, GSPT1 (Homo sapiens, UniProt P15170+Q96SW2); assay: Western-blot assay, substrate protein degradation in hPBMCs: GSPT1; format: cell-based; settings: for GSPT1 substrate protein remaining %: compounds at 50 nM and 500 nM, 24 hours; for substrate protein remaining % GSPT1: 24 hours of compound treatment, 50 nM and 500 nM
T5 construct: effects of the compounds of the present disclosure on the expression of target proteins in cells; endogenous in cells; host or cells: human PBMCs (hPBMCs)

WEE1 = target: T6, WEE1 (Homo sapiens, UniProt P30291+Q96SW2); assay: Western-blot assay, substrate protein degradation in hPBMCs: WEE1; format: cell-based; settings: for WEE1 substrate protein remaining %: compounds at 50 nM and 500 nM, 24 hours; for substrate protein remaining % WEE1: 24 hours of compound treatment, 50 nM and 500 nM
T6 construct: effects of the compounds of the present disclosure on the expression of target proteins in cells; endogenous in cells; host or cells: human PBMCs (hPBMCs)
T6 sequence (P30291 whole entry): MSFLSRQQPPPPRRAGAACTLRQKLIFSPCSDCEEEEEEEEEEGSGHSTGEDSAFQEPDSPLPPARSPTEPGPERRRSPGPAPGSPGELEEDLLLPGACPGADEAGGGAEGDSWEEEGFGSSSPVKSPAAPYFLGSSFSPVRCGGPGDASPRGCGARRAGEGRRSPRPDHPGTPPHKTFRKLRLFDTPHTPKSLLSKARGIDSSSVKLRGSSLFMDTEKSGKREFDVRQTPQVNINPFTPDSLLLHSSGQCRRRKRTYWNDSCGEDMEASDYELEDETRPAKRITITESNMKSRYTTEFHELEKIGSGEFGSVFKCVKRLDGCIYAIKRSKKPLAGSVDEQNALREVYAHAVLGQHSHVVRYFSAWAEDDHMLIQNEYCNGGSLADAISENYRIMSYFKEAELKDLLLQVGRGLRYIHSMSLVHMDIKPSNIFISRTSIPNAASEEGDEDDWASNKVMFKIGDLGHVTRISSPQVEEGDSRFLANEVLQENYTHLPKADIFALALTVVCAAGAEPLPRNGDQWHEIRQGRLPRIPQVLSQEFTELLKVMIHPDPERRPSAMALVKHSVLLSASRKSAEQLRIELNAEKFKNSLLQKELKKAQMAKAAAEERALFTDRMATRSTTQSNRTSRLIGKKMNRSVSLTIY
T6 sequence (Q96SW2 whole entry): as the sequence (Q96SW2 whole entry) above
T6 sequence (Q16531 whole entry partner): as the sequence (Q16531 whole entry partner) above

MDA-MB-231 = assay: Cell viability assay (CellTiter-Meiluncell Luminescent), tumor cell proliferation, MDA-MB-231; settings: Homo sapiens, MDA-MB-231, 96 h; for inhibition at 0.01 µM: read-out: Inhibition Rate at 10 nM (%); for inhibition at 0.5 µM: read-out: Inhibition Rate at 500 nM (%)
MV-4-11 = assay: Cell viability assay (CellTiter-Meiluncell Luminescent), tumor cell proliferation, MV-4-11; settings: Homo sapiens, MV4-11, 96 h; for inhibition at 0.01 µM: read-out: Inhibition Rate at 10 nM (%); for inhibition at 0.5 µM: read-out: Inhibition Rate at 500 nM (%)
Description: The tumor cells used herein were cultured in a cell culture medium listed in table 2 at 37°C in an incubator with 5% CO2. Prior to experimentation, all cell lines used were correctly identified by STR profiling, and tested negative for mycoplasma contamination using a mycoplasma detection kit through routine screenings.
On the following day, the test compounds of the present disclosure were subjected to serial dilution. […] Subsequently, 0.5 µL of the test compound dilution was transferred into the 96-well plate containing the cells, with each well containing 100 µL of cell culture medium. […] Into the 96-well plate, the diluted test compounds and corresponding detection reagents were added, resulting in final test compound concentrations of 500 nM and 10 nM, respectively. The experimental procedure is described below using the diluted 2 µM test compound as an example.
After the cells were treated with the compounds of the present disclosure for a specified period, the cell viability assay reagent was added to the culture medium according to the kit's instructions to determine cell viability. […] All controls were treated using the same procedure as the compounds of the present disclosure. The growth inhibition curves for the compounds of the present disclosure were plotted using Prism GraphPad software, and the IC50 values were calculated therefrom.

H292 = assay: Cell viability assay (CellTiter-Meiluncell Luminescent), tumor cell proliferation, H292; settings: Homo sapiens, NCI-H292, 96 h; for inhibition at 0.01 µM: read-out: Inhibition Rate at 10 nM (%); for inhibition at 0.5 µM: read-out: Inhibition Rate at 500 nM (%)

SMILES | IKZF1 substrate protein remaining % (IKZF1) | IKZF2 substrate protein remaining % (IKZF2) | CK1α substrate protein remaining % (CK1α) | IC50 (MM.1S) [nM] | IKZF3 substrate protein remaining % (IKZF3) | GSPT1 substrate protein remaining % (GSPT1) | WEE1 substrate protein remaining % (WEE1) | substrate protein remaining % IKZF1 (IKZF1) | substrate protein remaining % IKZF2 (IKZF2) | substrate protein remaining % CK1α (CK1α) | substrate protein remaining % IKZF3 (IKZF3) | substrate protein remaining % GSPT1 (GSPT1) | substrate protein remaining % WEE1 (WEE1) | inhibition at 0.01 µM (MDA-MB-231) [%] | inhibition at 0.5 µM (MDA-MB-231) [%] | inhibition at 0.01 µM (MV-4-11) [%] | inhibition at 0.5 µM (MV-4-11) [%] | inhibition at 0.01 µM (H292) [%] | inhibition at 0.5 µM (H292) [%]
Cc1ccc(Sc2ccccc2N2CCN(Cc3ccc4c(c3)CN(N3CCC(=O)NC3=O)C4=O)CC2)c(C)c1 [GT-04867, 1-(5-((4-(2-((2,4-dimethylphenyl)thio)phenyl)piperazin-1-yl)methyl)-1-oxoisoindolin-2-yl)dihydropyrimidine-2,4(1H,3H)-dione] | A ("A" is defined as 0% ≤ substrate protein remaining % ≤ 80%) | B ("B" is defined as 80%< substrate protein remaining %≤ 100%) | B ("B" is defined as 80%< substrate protein remaining %≤ 100%) | 500 to 1000 | B ("B" is defined as 80%< substrate protein remaining %≤ 100%) | A ("A" is defined as 0% ≤ substrate protein remaining % ≤ 80%) | B ("B" is defined as 80%< substrate protein remaining %≤ 100%) | – | – | – | – | – | – | – | – | – | – | – | –
O=C1CCN(N2Cc3cc(CN4CC=C(c5ccoc5)CC4)ccc3C2=O)C(=O)N1 [GT-04875, 1-(5-((4-(furan-3-yl)-3,6-dihydropyridin-1(2H)-yl)methyl)-1-oxoisoindolin-2-yl)dihydropyrimidine-2,4(1H,3H)-dione] | B ("B" is defined as 80%< substrate protein remaining %≤ 100%) | B ("B" is defined as 80%< substrate protein remaining %≤ 100%) | B ("B" is defined as 80%< substrate protein remaining %≤ 100%) | 300 to 500 | B ("B" is defined as 80%< substrate protein remaining %≤ 100%) | A ("A" is defined as 0% ≤ substrate protein remaining % ≤ 80%) | A ("A" is defined as 0% ≤ substrate protein remaining % ≤ 80%) | – | – | – | – | – | – | – | – | – | – | – | –
O=C1CCN(N2Cc3cc(CN4C[C@@H]5C[C@H]4CN5c4cccc(Cl)c4Cl)ccc3C2=O)C(=O)N1 [GT-05163, 1-(5-(((1S,4S)-5-(2,3-dichlorophenyl)-2,5-diazabicyclo[2.2.1]heptan-2-yl)methyl)-1-oxoisoindolin-2-yl)dihydropyrimidine-2,4(1H,3H)-dione] | A ("A" is defined as 0% ≤ substrate protein remaining % ≤ 80%) | A ("A" is defined as 0% ≤ substrate protein remaining % ≤ 80%) | B ("B" is defined as 80%< substrate protein remaining %≤ 100%) | 500 to 1000 | A ("A" is defined as 0% ≤ substrate protein remaining % ≤ 80%) | A ("A" is defined as 0% ≤ substrate protein remaining % ≤ 80%) | B ("B" is defined as 80%< substrate protein remaining %≤ 100%) | – | – | – | – | – | – | – | – | – | – | – | –
CC1(C)CCC(CN2CC3CC(C2)N3Cc2ccc3c(c2)CN(N2CCC(=O)NC2=O)C3=O)=C(c2ccc(Cl)cc2)C1 [GT-06456, 1-(5-((3-((4'-chloro-5,5-dimethyl-3,4,5,6-tetrahydro-[1,1'-biphenyl]-2-yl)methyl)-3,6-diazabicyclo[3.1.1]heptan-6-yl)methyl)-1-oxoisoindolin-2-yl)dihydropyrimidine-2,4(1H,3H)-dione] | A ("A" is defined as 0% ≤ substrate protein remaining % ≤ 80%) | A ("A" is defined as 0% ≤ substrate protein remaining % ≤ 80%) | A ("A" is defined as 0% ≤ substrate protein remaining % ≤ 80%) | 100 to 300 | A ("A" is defined as 0% ≤ substrate protein remaining % ≤ 80%) | A ("A" is defined as 0% ≤ substrate protein remaining % ≤ 80%) | A ("A" is defined as 0% ≤ substrate protein remaining % ≤ 80%) | – | – | – | – | – | – | – | – | – | – | – | –
Cc1ccc(C2CCN(Cc3ccc4c(c3)CN(N3CCC(=O)NC3=O)C4=O)CC2)s1 [GT-07425, 1-(5-((4-(5-methylthiophen-2-yl)piperidin-1-yl)methyl)-1-oxoisoindolin-2-yl)dihydropyrimidine-2,4(1H,3H)-dione] | – | – | – | 500 to 1000 | – | – | – | B (80%< substrate protein remaining %≤ 100%) | B (80%< substrate protein remaining %≤ 100%) | B (80%< substrate protein remaining %≤ 100%) | B (80%< substrate protein remaining %≤ 100%) | A (0% ≤ substrate protein remaining % ≤ 80%) | B (80%< substrate protein remaining %≤ 100%) | – | – | – | – | – | –
O=C1CCN(N2Cc3cc(CN4CCN(C(c5ccc(F)cc5)c5ccc(F)cc5)CC4)ccc3C2=O)C(=O)N1 [GT-04894, 1-(5-((4-(bis(4-fluorophenyl)methyl)piperazin-1-yl)methyl)-1-oxoisoindolin-2-yl)dihydropyrimidine-2,4(1H,3H)-dione] | A ("A" is defined as 0% ≤ substrate protein remaining % ≤ 80%) | A ("A" is defined as 0% ≤ substrate protein remaining % ≤ 80%) | B ("B" is defined as 80%< substrate protein remaining %≤ 100%) | 500 to 1000 | B ("B" is defined as 80%< substrate protein remaining %≤ 100%) | A ("A" is defined as 0% ≤ substrate protein remaining % ≤ 80%) | A ("A" is defined as 0% ≤ substrate protein remaining % ≤ 80%) | – | – | – | – | – | – | – | – | – | – | – | –
Cc1nc(C2CCN(Cc3ccc4c(c3)C(=O)N(N3CCC(=O)NC3=O)C4=O)CC2)c2c(-c3ccccc3)csc2n1 [GT-08110, 2-(2,4-dioxotetrahydropyrimidin-1(2H)-yl)-5-((4-(2-methyl-5-phenylthieno[2,3-d]pyrimidin-4-yl)piperidin-1-yl)methyl)isoindoline-1,3-dione] | – | – | – | – | – | – | – | A (0% ≤ substrate protein remaining % ≤ 80%) | A (0% ≤ substrate protein remaining % ≤ 80%) | A (0% ≤ substrate protein remaining % ≤ 80%) | A (0% ≤ substrate protein remaining % ≤ 80%) | A (0% ≤ substrate protein remaining % ≤ 80%) | A (0% ≤ substrate protein remaining % ≤ 80%) | 25 to 40 | 15 to 18 | 10 to 18 | 18 to 25 | 20 to 40 | 10 to 15
O=C1CCN(N2Cc3cc(CN4CCN(c5ncnc6sc(Br)cc56)CC4)ccc3C2=O)C(=O)N1 [GT-08063, 1-(5-((4-(6-bromothieno[2,3-d]pyrimidin-4-yl)piperazin-1-yl)methyl)-1-oxoisoindolin-2-yl)dihydropyrimidine-2,4(1H,3H)-dione] | – | – | – | – | – | – | – | B (80%< substrate protein remaining %≤ 100%) | A (0% ≤ substrate protein remaining % ≤ 80%) | B (80%< substrate protein remaining %≤ 100%) | A (0% ≤ substrate protein remaining % ≤ 80%) | B (80%< substrate protein remaining %≤ 100%) | B (80%< substrate protein remaining %≤ 100%) | 15 to 18 | 15 to 18 | 18 to 25 | 5 to 10 | 20 to 40 | 20 to 40
